Test results as given in patent US10842794B2, “Use of Sigma-1 receptor agonist compounds” (MTA TÁMOGATOTT KUTATÓCSOPORTOK IRODÁJA, priority 2014, dated 2020).

How the values were obtained:
NRK49F cells = test: Cell viability MTT assay in myofibroblasts; type: cell-based, rat; conditions: 24-hours treatment, commonly used doses 1-10 μM
[1] = tested on: Streptozotocin induced type 1 diabetic rats; test: Diabetic rat kidney: αSMA protein level, western blot; type: in vivo; conditions: diabetic rats, fluvoxamine + NE-100 1 mg/bwkg/day
[2] = tested on: Streptozotocin induced type 1 diabetic rats; test: Diabetic rat kidney: PAS staining, mesangial matrix expansion; type: in vivo; conditions: fluvoxamine 20 or 2 mg/bwkg/day + NE-100 1 mg/bwkg/day
[3] = tested on: Streptozotocin induced type 1 diabetic rats; test: Diabetic rat kidney: fibronectin staining; type: in vivo; conditions: fluvoxamine 20 mg/bwkg/day + NE-100 1 mg/bwkg/day
[4] = tested on: NRK49F rat kidney interstitial fibroblast cell lines; test: PDGFB-induced myofibroblast proliferation (MTT); type: cell-based; conditions: for PDGF-induced myofibroblast proliferation: 10 ng/mL PDGFB, 24 hours, different concentrations of agonist
[5] = tested on: rat model of bleomycin-induced lung fibrosis; test: Rat model of bleomycin induced pulmonary fibrosis: αSMA protein in lung, western blot; type: in vivo; conditions: fluvoxamine 20 mg/bwkg/day + NE-100 1 mg/bwkg/day for three weeks
Description: (Bars represent Mean±SEM, n=6/group).
(§1) For the induction of pulmonary fibrosis male Wistar rats were anesthetized. Bleomycin (5 mg/bwkg in a 300 μl solution of isotonic saline) or 300 μl isotonic saline was administered into the trachea using a 30G needle.
(§2) Animals were randomly divided into 4 groups of 6 rats each as follows (i)—control group was sham operated, received isotonic saline per os daily for 3 weeks, (ii) vehicle treated group: received isotonic saline per os daily for 3 weeks after the induction of lung fibrosis, (iii) fluvoxamine treated group: received fluvoxamine (20 mg/bwkg/day per os for 3 weeks after the induction of lung fibrosis), (iv) fluvoxamine+NE100 treated group: received fluvoxamine (20 mg/bwkg/day; per os) and 1 mg/bwkg/day NE100 (i.p. for 3 weeks after the induction of lung fibrosis. […]
Tissue samples were lysed in buffer containing leupeptin, aprotinin, Triton X-100, Tris-HCl, Ethylene glycol-bis (2-aminoethylether),N,N,N′,N′-tetraacetic-acid, NaF, Phenylmethylsulphonylfluoride and Na-orthovanadate (each substance were purchased from Sigma-Aldrich Co., St. Louis, Mo., USA) and centrifuged to pellet nuclei and large cellular fragments. Protein concentration of the supernatants was determined by Bradford assay (Bio-Rad Laboratories, Hercules, Calif., USA). […] Bands were analyzed with Quantity One software version 4.6.9. […]

[6] = tested on: rat model of bleomycin-induced lung fibrosis; test: Rat model of bleomycin induced pulmonary fibrosis: Masson trichrome staining of lung; type: in vivo; conditions: fluvoxamine 20 mg/bwkg/day + NE-100 1 mg/bwkg/day for three weeks
Description: Masson trichrome staining of tissue sections was performed Bars represent Mean±SEM, n=6/group). Specifically:
as §1, §2
The stained sections were viewed and photographed with Pannoramic 250 Flash and Pannoramic Viewer 1.15.2 (3D HISTECH Ltd. Budapest, Hungary) Adobe Photoshop 13.0 and Scion Image for Windows software were used for the analysis. […] Finally these ratios were statistically analyzed in all of the treatment groups.

[7] = tested on: Streptozotocin induced type 1 diabetic rats; test: Diabetic rat kidney: Masson's trichrome staining, tubulointerstitial fibrosis; type: in vivo; conditions: rats treated with 20 mg fluvoxamine + NE-100 1 mg/bwkg/day
[8] = tested on: mice with unilateral ureter obstruction (UUO); test: Mice model of unilateral ureteral obstruction (UUO): Masson's trichrome, tubulointerstitial fibrosis; type: in vivo; conditions: fluvoxamine 20 mg/bwkg/day + NE-100 1 mg/bwkg/day for one week
NRK49F myofibroblasts = conditions: all applied concentrations, even the smallest 1 μM
Description: In 6-well plates of NRK49F myofibroblasts (6×10^6 cells/well) TGF-β (1 nM) induced production of fibrillar components of the extracellular matrix was measured by Sirius Red staining. To investigate the effect of S1R agonist compounds a group of cells was treated for 48 hours with the various S1R agonists. Solvent treated cells served as controls. (Bars represent mean±SEM)
To investigate the deposition of fibrillar collagen Sirius Red staining was performed. 48 hours after the treatment with TGF-β and said compounds the NRK-49F cells were incubated for 10 minutes with Kahle fixative solution. 0.1% Sirius Red (Direct Red 80, Sigma-Aldrich) in 1.2% picric acid was added for each well and plates were incubated for 30 minutes at RT. The unconnected dye molecules were washed with distilled water. The bound Sirius Red dye was eluated with 0.1 M NaOH solution, absorbance was recorded at 540 nm in a Hidex Chameleon Microplate Reader (Triathler, Plate Chameleion, 300SL Lablogic Systems, Inc., Brandon, Fla., USA) used MikroWin program. Vehicle treated cells served as controls.

[9] = tested on: post-AMI left ventricular remodeling / infarct expansion; conditions: cited from earlier work
[10] = tested on: Japanese patients with IPF; conditions: 1,800 mg/day, 107 Japanese patients with IPF; cited from earlier work
S2R = S2R (Homo sapiens, UniProt Q5BJF2); conditions: read-out: Ki for σ2 receptors; cited from earlier work
Sequence of S2R (Q5BJF2 whole entry, species assumed): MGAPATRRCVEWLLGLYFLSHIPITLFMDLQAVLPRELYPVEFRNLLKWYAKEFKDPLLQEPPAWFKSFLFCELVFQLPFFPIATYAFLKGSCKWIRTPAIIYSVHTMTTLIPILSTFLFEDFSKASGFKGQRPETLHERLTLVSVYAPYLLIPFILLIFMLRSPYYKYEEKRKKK

PCP receptors = conditions: cited from earlier work

CCCN(CCC)CCc1ccc(OC)c(OCCc2ccccc2)c1.Cl [NE-100, 4-Methoxy-3-(2-phenylethoxy)-N,N-dipropylbenzeneethanamine hydrochloride]
cytotoxicity / cell viability in myofibroblasts (NRK49F cells): not cytotoxic
effect of NE-100 co-administration on fluvoxamine's effect on αSMA protein level [1]: suspended
effect of NE-100 co-administration on renoprotection of fluvoxamine (mesangial matrix expansion) [2]: prohibited the renoprotection of fluvoxamine
effect of NE-100 on fluvoxamine's effect on fibronectin accumulation [3]: suspended this beneficial effect
effect of NE-100 co-incubation on anti-proliferative effect of fluvoxamine ([4]; NE-100 3 μM with fluvoxamine 10 μM, PDGF-induced): suspended the effect of fluvoxamine
effect of NE-100 on fluvoxamine's effect on lung αSMA [5]: suspended the beneficial effect of fluvoxamine
effect of NE-100 on fluvoxamine's effect on lung fibrosis [6]: suspended the effect of fluvoxamine
effect of NE-100 co-administration on protective effect of fluvoxamine (tubulointerstitial fibrosis) [7]: inhibited the protective effect of fluvoxamine
effect of NE-100 on fluvoxamine's effect on tubulointerstitial fibrosis after UUO [8]: suspended the beneficial effect of fluvoxamine

COc1ccc(CCN2CCN(CCCc3ccccc3)CC2)cc1OC [SA-4503, 1-[2-(3,4-Dimethoxyphenyl)ethyl]-4-(3-phenylpropyl)piperazine]
cytotoxicity / cell viability in myofibroblasts (NRK49F cells): not cytotoxic
PDGF-induced myofibroblast proliferation [4]: significantly decreased PDGF-induced myofibroblast proliferation
TGFβ-induced ECM production (Sirius Red) (NRK49F myofibroblasts): significantly inhibited TGFβ-induced ECM production

COc1ccc(/C=C/C(=O)Nc2ccccc2C(=O)O)cc1OC [tranilast, 2-{[(2E)-3-(3,4-dimethoxyphenyl)prop-2-enoyl]amino}benzoic acid]
left ventricular remodeling ([9]; commencement of treatment delayed to 7 days post-AMI): impeded left ventricular remodeling
infarct expansion ([9]; intervention from 24h post-AMI): exacerbated infarct expansion

Cc1ccc(=O)n(-c2ccccc2)c1 [pirfenidone, 5-Methyl-1-phenylpyridin-2-one]
primary end point, pirfenidone versus placebo [10]: not significantly different between the two groups

O=C(OCCN1CCOCC1)C1(c2ccccc2)CCCCC1 [PRE-084, 2-morpholin-4-ylethyl 1-phenylcyclohexane-1-carboxylate]
Ki (S2R): 13.1 µM
cytotoxicity / cell viability in myofibroblasts (NRK49F cells): not cytotoxic
PDGF-induced myofibroblast proliferation [4]: significantly decreased PDGF-induced myofibroblast proliferation
TGFβ-induced ECM production (Sirius Red) (NRK49F myofibroblasts): significantly inhibited TGFβ-induced ECM production
IC50 (PCP receptors): > 100 µM
